Read-outs that look alike come from different tables or passages of the source.
How the values were obtained:
[1] = male versus female Wistar rats; P-450 oxidation products; cited from earlier work
[2] = tested on: sodium-potassium-2 chloride transport mechanism in the ascending limb of the loop of Henle; conditions: cited from earlier work
[3] = in vivo; cited from earlier work
Diuretic effect = conditions: in vivo
True density = type: physicochemical
Procedure: One aspect of the present invention involves pure torasemide of modification III. It is believed that pure torasemide of modification III was previously unknown to the art. Torasemide of modification III can be characterized by a melting point of 155 to 158° C. (thermomicroscopy) and a true density of 1.302±0.009 g cm^-3 (versus 1.363±0.001 g cm^3 for modification I). In a preferred embodiment, the torasemide of modification III is pure. This term "pure" means that the torasemide contains less than about 1% of modification I and/or II, and less in any event than amounts of modification I which adversely effect the stability of modification III.
True density (g cm^-3) ± 95% - c.i.

[4] = Heat of fusion / heat of transition (DSC); type: physicochemical; conditions: for Heat of fusion ± 95% - C.B.: heating rate 5K min^-1
[5] = Water content after storing in relative humidity of 92% at 25° C.; type: physicochemical; conditions: 92% relative humidity, Mod. III depending on particle size
Procedure: Relevant data of the two most important crystal forms (modification I and III) of torasemide are summarized in Table 1. | Water content (%) after storing in relative 0.2 1.2 (depending | humidity of 92% at 25° C. on particle size

[6] = Storage stability of the crystal modification; type: physicochemical; conditions: storage stable: tablet form, ambient conditions, less than 5% changing into another crystalline form over six months
Heat of solution = type: physicochemical; conditions: in I-butanol at 20° C.
Procedure: Relevant data of the two most important crystal forms (modification I and III) of torasemide are summarized in Table 1. | Heat of solution (kJ mol^-1) in I-butanol at 20° C. 36.1

[7] = Serum concentration of torasemide in rats after oral administration; type: in vivo, Wistar rat; conditions: male rats (FIG. 1); for Serum concentration compared with modification I: oral 3 mg per kilogram
Procedure: FIG. 1 is a plot of serum concentration levels in male rats of torasemide of modification I and modification III versus time after oral administration; and FIG. 2 is similar to FIG. 1, but reflects the serum concentrations in female rats. […] Therefore, both genders were tested to determine the concentration of torasemide in serum against the time after administration. The dose of torasemide was 3 mg per kilogram, administered orally. FIG. 1 is a graph illustrating the concentration in the serum of male rats of torasemide, as a result of administering modification I and modification III. FIG. 2 is a representation of the concentration of torasemide versus time after administration for the serum of female rats, treated the same as the male rats of FIG. 1.

[8] = prior art (U.S. Re 34,672 and 34,580); listed as modification I; cited from earlier work
[9] = literature (Acta Cryst. 1978), cited from earlier work

In the case of `Cc1cccc(Nc2ccncc2S(=O)(=O)NC(=O)NC(C)C)c1` [Torasemide, 1-isopropyl-3-[(4-m-toluidino-3pyridyl)sulphonyl)urea], the “Difference between male and female rats in excretion rate and metabolism” value [1] is given as “significant differences”, the Mechanism of action [2] is given as “blocks the sodium-potassium-2 chloride transport mechanism in the ascending limb of the loop of Henle” and the “Diuresis profile compared with other standard loop diuretics” value [3] is given as “less intense initial diuresis and a sustained duration of action”.
In the case of `Cc1cccc(Nc2ccncc2S(=O)(=O)NC(=O)NC(C)C)c1` [Modification III], the Diuretic effect (Diuretic effect) is reported as “effective diuretic”, the “True density ± 95% - c.i.” value (True density; listed as Mod. III) is reported as 1.302 ± 0.009 g cm^-3 and the “True density ± 95% - c.i.” value (True density; listed as modification III) is reported as 1.302±0.009 g cm^-3. For the same molecule, the “Heat of transition ± 95% - C.B.” value ([4]; at about 159° C., the difference of the heats of fusion, ± 2.1 printed on next line) was -19.6 kcal/mol, the “Heat of fusion ± 95% - C.B.” value ([4]; listed as Mod. III) was 7.15 ± 0.22 kcal/mol and the “Water content after storing in relative humidity of 92% at 25° C.” value ([5]; listed as Mod. III) was 1.2%. The “Stability of the crystal modification” value [6] was “storage stable”, the Heat of solution (Heat of solution; listed as Mod. III) was 7.12 kcal/mol and the “Serum concentration compared with modification I” value ([7]; 20 minutes after administration) was “more than twice the serum concentration as modification I”. For the same molecule, the “Serum concentration compared with modification I” value ([7]; 40 minutes after administration) was “almost twice the serum concentration as modification I” and the “Appearance in the serum after oral administration” value ([7]; oral) was “rapid appearance”.
In the case of `Cc1cccc(Nc2ccncc2S(=O)(=O)NC(=O)NC(C)C)c1` [Modification I], the “True density ± 95% - c.i.” value (True density; listed as Mod. I) is given as 1.363 ± 0.001 g cm^-3, the “Stability / rearrangement in tablets or on storage” value [8] is given as “stable in tablets and did not rearrange again back into modification II” and the “Heat of fusion ± 95% - C.B.” value [4] is given as 8.89 ± 0.454 kcal/mol. The “Water content after storing in relative humidity of 92% at 25° C.” value ([5]; listed as Mod. I) was 0.2%, the Heat of solution (Heat of solution) was 8.63 kcal/mol and the True density [9] was “about 1.36”.
In the case of `Cc1cccc(Nc2ccncc2S(=O)(=O)NC(=O)NC(C)C)c1` [Modification II], the True density ([9]; in g/cm3 (unit assumed)) is given as 1.285.
